Assay results as given in patent US20160068902A1, “SEQUENCING NUCLEIC ACIDS BY ENZYME ACTIVATION” (CAERUS MOLECULAR DIAGNOSTICS, priority 2013, published 2016).

System: maltose binding protein/lactamase enzyme (switch enzyme)
Assay: Lactamase switch enzyme activity monitored with chromogenic substrate nitrocefin
Format: biochemical
Details: for activation of the switch protein: without dephosphorylation; for activation of the switch protein / activation of the switch protein after dephosphorylation: FIG. 4E; for activation of the switch protein after dephosphorylation: dephosphorylated with shrimp alkaline phosphatase
Text: A maltose with the 1′ hydroxyl attached to the terminal phosphate of a dNTP should not bind effectively to the switch and so should not activate the maltose binding protein/lactamase enzyme^12. The conjugated maltose/dNTP can be used to detect incorporation of dNTP during a cycle of sequencing by synthesis: the enzyme is only activated after incorporation of a dNTP released phospho-maltose which is then be dephosphorylated to yield the maltose activator. […] Maltose monohydrate (1.44 g) was dissolved in 1 ml of water titrated to pH 12.5 by addition of NaOH and heated to 80° C. Trisodium trimetaphosphate (0.31 g) was added and the mixture reacted at room temperature for 25 hours. The maltose-triphosphate product was purified by anion exchange chromatography on a Dowex 1-X2 resin and eluted with 300 mM KCl.
The switch protein was expressed and purified as previously described^21 and enzyme activity was monitored using the chromogenic substrate nitrocefin. […] Addition of maltose increased the enzyme activity more than 210-fold.

| increase of enzyme activity on addition of maltose (10 nM switch enzyme, nitrocefin hydrolysis, FIG. 4A) | Lactamase switch hydrolyses nitrocefin faster after maltose addition (FIG. 4(A) legend) | activation of the switch protein | Compound | activation of the switch protein after dephosphorylation | activation of the switch protein after dephosphorylation (listed as Maltose triphosphate) |
| --- | --- | --- | --- | --- | --- |
| more than 210 fold | 210 times | activates the protein | OC[C@H]1O[C@H](O[C@H]2[C@H](O)[C@@H](O)C(O)O[C@@H]2CO)[C@H](O)[C@@H](O)[C@@H]1O (mixture of isomers) [maltose] | – | – |
| – | – | no appreciable activation | maltose triphosphate | activation levels similar to that of maltose | significant activation of the lactamase switch only upon dephosphorylation |
